The values below come from patent US20260306680A1, “RADIOLABELED COMPOUNDS TARGETING THE PROSTATE-SPECIFIC MEMBRANE ANTIGEN” (PROVINCIAL HEALTH SERVICES AUTHORITY, priority 2022, published 2026).

In data set [1] the test system is glutamate carboxypeptidase II. To be noted: cited from earlier work.
A further data set concerns LNCaP tumor xenografts. As to the kind of experiment: Ex vivo biodistribution in mice bearing LNCaP tumor xenografts. Further details: species or system mouse (male NOD-scid IL2Rg^null (NSG)). The note with it: mean ± SD. On the procedure: (§1) All imaging and biodistribution studies used male NOD-scid IL2Rg^null (NSG) mice and conducted according to the guidelines established by the Canadian Council on Animal Care and approved by Animal Ethics Committee of the University of British Columbia. For tumor inoculations, mice were anesthetized via inhalation of 2% isoflurane in oxygen and implanted subcutaneously with 5×10^6 LNCaP cells below the left shoulder. Imaging and biodistribution studies were performed only after tumors grew to 5-8 mm in diameter.
(§2) For PET/CT imaging studies, approximately 5 MBq of the ^18F-labeled tracer was injected through the tail vein. While for ex vivo biodistribution studies, mice were injected with around 2 MBq of the ^18F-labeled tracer through the tail vein. Mice were allowed to recover and roam freely in the cages after injecting the tracer. At 45 min post-injection, imaging mouse were sedated again and positioned on the scanner. A 10 min CT scan was conducted first to allow for localization and attenuation correction for later reconstruction of PET images. A 10 min PET image was acquired following CT scan. Heating pads were used during the entire procedure to keep the mice warm and circulate the blood. At 1 h post-injection, all mice for biodistribution study were euthanized with blood drawn from heart, and all tissues of interest were collected, rinsed with PBS, blotted dry, weighed, and counted using an automated gamma counter. The uptake in each organ/tissue was normalized to the injected dose and expressed as the percentage of the injected dose per gram of tissue (% ID/g).
(§3) Representative maximum intensity projection PET images of ^18F-KLF1007-pyridine-BF3 and ^18F-KL01040 acquired at 1 h post-injection from LNCaP tumor-bearing mice is enumerated in Table 4 and shown in FIG. 1. Representative maximum intensity projection PET images of ^18F-KL01120 and ^18F-KL01130 acquired at 1 h post-injection from LNCaP tumor-bearing mice is also enumerated in Table 5 and shown in FIG. 2 (^18F-KL1120) and enumerated in Table 6 and shown in FIG. 3 (^18F-KL01130).

Assay in data set [2]: as above
Also on record: species or system mouse (male NOD-scid IL2Rg^null (NSG)). To be noted: mouse, iv, mean ± SD. Here is the method:
as §1, §2, §3

[3] abbreviates: 1 h Blocked (co-injection of 2-PMPA, 0.5 mg).

Where two headings read alike, the source gives them in different places.

With `O=C(O)CC[C@H](NC(=O)N[C@@H](CCCCNC(=O)c1ccc(F)nc1)C(=O)O)C(=O)O` [^18F-DCFPyL], the liver uptake result in data set [1] (reduces sensitivity for detecting metastatic lesions in liver) is recorded as “high”.

With `O=C(O)CCC[C@H](NC(=O)N[C@@H](CCCCNC(=O)[C@H](Cc1c2ccccc2cc2ccccc12)NC(=O)[C@H]1CC[C@H](CNC(=O)CNC(=O)[C@H](CCCCNC(=O)c2ccc(F)nc2)NC(=O)CN(CC(=O)O)CC(=O)O)CC1)C(=O)O)C(=O)O` [^18F-KL01130], the “Tumor:Muscle uptake ratio” value is listed as 10.4 ± 1.31 in the data set on LNCaP tumor xenografts (setting [3]) and 35.7 ± 5.75 in the data set with LNCaP tumor xenografts (1 h post-injection). Besides, the results for the “Tumour:Blood uptake ratio” value in the data set on LNCaP tumor xenografts (setting [3]) and in the data set on LNCaP tumor xenografts (1 h post-injection) were 1.19 ± 0.12 and 6.93 ± 1.54, respectively. The “Tumour:Bone uptake ratio” value in the data set with LNCaP tumor xenografts (setting [3]) amounted to 3.89 ± 1.05; in the data set on LNCaP tumor xenografts (1 h post-injection), 14.6 ± 4.27. For the same compound, the “Tumour:Kidney uptake ratio” value is 0.44 ± 0.05 in the data set with LNCaP tumor xenografts (setting [3]) and 0.59 ± 0.35 with LNCaP tumor xenografts (1 h post-injection). Also, the tissue uptake at 1 h is 0.39 ± 0.17 %ID/g in data set [2] (adrenal glands, 1 h Blocked (co-injection of 2-PMPA, 0.5 mg), read-out: Adrenal Glands uptake); 0.59 ± 0.06 %ID/g in data set [2] (adrenal glands, 1 h post-injection, read-out: Adrenal Glands uptake); 1.78 ± 0.12 %ID/g in data set [2] (blood, 1 h Blocked (co-injection of 2-PMPA, 0.5 mg), read-out: Blood uptake); 1.2 ± 0.26 %ID/g in data set [2] (blood, 1 h post-injection, read-out: Blood uptake); 0.57 ± 0.16 %ID/g in data set [2] (bone, 1 h Blocked (co-injection of 2-PMPA, 0.5 mg), read-out: Bone uptake); 0.52 ± 0.17 %ID/g in data set [2] (bone, 1 h post-injection, read-out: Bone uptake). The tissue uptake at 1 h amounted to 0.04 %ID/g in data set [2] (brain, 1 h Blocked (co-injection of 2-PMPA, 0.5 mg), read-out: Brain uptake); 0.04 ± 0.01 %ID/g in data set [2] (brain, 1 h post-injection, read-out: Brain uptake); 0.33 ± 0.1 %ID/g in data set [2] (fat, 1 h Blocked (co-injection of 2-PMPA, 0.5 mg), read-out: Fat uptake); 0.22 ± 0.09 %ID/g in data set [2] (fat, 1 h post-injection, read-out: Fat uptake); 0.45 ± 0.05 %ID/g in data set [2] (heart, 1 h Blocked (co-injection of 2-PMPA, 0.5 mg), read-out: Heart uptake); 0.34 ± 0.07 %ID/g in data set [2] (heart, 1 h post-injection, read-out: Heart uptake). The tissue uptake at 1 h in data set [2] (kidneys, 1 h Blocked (co-injection of 2-PMPA, 0.5 mg), read-out: Kidneys uptake) worked out at 4.77 ± 0.3 %ID/g; in data set [2] (kidneys, 1 h post-injection, read-out: Kidneys uptake) it was 19 ± 5.04 %ID/g; in data set [2] (lacrimal glands, 1 h Blocked (co-injection of 2-PMPA, 0.5 mg), read-out: Lacrimal Glands uptake) it was 0.04 ± 0.02 %ID/g; in data set [2] (lacrimal glands, 1 h post-injection, read-out: Lacrimal Glands uptake), 0.1 ± 0.06 %ID/g; in data set [2] (large intestine, 1 h Blocked (co-injection of 2-PMPA, 0.5 mg), read-out: Large Intestine uptake), 0.26 ± 0.1 %ID/g; in data set [2] (large intestine, 1 h post-injection, read-out: Large Intestine uptake) it was 0.2 ± 0.1 %ID/g. Also, the tissue uptake at 1 h in data set [2] (liver, 1 h Blocked (co-injection of 2-PMPA, 0.5 mg), read-out: Liver uptake) came to 0.67 ± 0.07 %ID/g; in data set [2] (liver, 1 h post-injection, read-out: Liver uptake) it was 0.47 ± 0.06 %ID/g; in data set [2] (lncap tumor, 1 h Blocked (co-injection of 2-PMPA, 0.5 mg), read-out: LNCaP Tumor uptake) it was 2.11 ± 0.02 %ID/g; in data set [2] (lncap tumor, 1 h post-injection, read-out: LNCaP Tumor uptake), 8.01 ± 0.9 %ID/g; in data set [2] (lungs, 1 h Blocked (co-injection of 2-PMPA, 0.5 mg), read-out: Lungs uptake), 1.22 ± 0.17 %ID/g; in data set [2] (lungs, 1 h post-injection, read-out: Lungs uptake), 0.96 ± 0.19 %ID/g. The tissue uptake at 1 h was 0.2 ± 0.02 %ID/g in data set [2] (muscle, 1 h Blocked (co-injection of 2-PMPA, 0.5 mg), read-out: Muscle uptake); 0.34 ± 0.24 %ID/g in data set [2] (muscle, 1 h post-injection, read-out: Muscle uptake); 0.32 ± 0.04 %ID/g in data set [2] (pancreas, 1 h Blocked (co-injection of 2-PMPA, 0.5 mg), read-out: Pancreas uptake); 0.21 ± 0.05 %ID/g in data set [2] (pancreas, 1 h post-injection, read-out: Pancreas uptake); 0.49 ± 0.14 %ID/g in data set [2] (salivary glands, 1 h Blocked (co-injection of 2-PMPA, 0.5 mg), read-out: Salivary Glands uptake); 0.52 ± 0.18 %ID/g in data set [2] (salivary glands, 1 h post-injection, read-out: Salivary Glands uptake). For the same compound, the tissue uptake at 1 h in data set [2] (seminal gland, 1 h Blocked (co-injection of 2-PMPA, 0.5 mg), read-out: Seminal Gland uptake) was 0.22 ± 0.06 %ID/g; in data set [2] (seminal glands, 1 h post-injection, read-out: Seminal Glands uptake) it was 0.15 ± 0.04 %ID/g; in data set [2] (small intestine, 1 h Blocked (co-injection of 2-PMPA, 0.5 mg), read-out: Small Intestine uptake) it was 2.4 ± 0.36 %ID/g; in data set [2] (small intestine, 1 h post-injection, read-out: Small Intestine uptake), 2.01 ± 0.6 %ID/g; in data set [2] (spleen, 1 h Blocked (co-injection of 2-PMPA, 0.5 mg), read-out: Spleen uptake) it was 0.31 ± 0.06 %ID/g; in data set [2] (spleen, 1 h post-injection, read-out: Spleen uptake), 0.36 ± 0.09 %ID/g. In addition, the tissue uptake at 1 h was determined as 0.36 ± 0.15 %ID/g in data set [2] (stomach, 1 h Blocked (co-injection of 2-PMPA, 0.5 mg), read-out: Stomach uptake); 0.19 ± 0.11 %ID/g in data set [2] (stomach, 1 h post-injection, read-out: Stomach uptake); 0.41 ± 0.05 %ID/g in data set [2] (testes, 1 h Blocked (co-injection of 2-PMPA, 0.5 mg), read-out: Testes uptake); 0.29 ± 0.05 %ID/g in data set [2] (testes, 1 h post-injection, read-out: Testes uptake); 0.48 ± 0.03 %ID/g in data set [2] (thyroid, 1 h Blocked (co-injection of 2-PMPA, 0.5 mg), read-out: Thyroid uptake); 0.38 ± 0.16 %ID/g in data set [2] (thyroid, 1 h post-injection, read-out: Thyroid uptake).

As to `O=C(O)CC[C@H](NC(=O)N[C@@H](CCCCNC(=O)[C@H](Cc1ccc2ccccc2c1)NC(=O)c1ccc(CNC(=O)[C@H](CCC(=O)O)NC(=O)[C@H](CCC(=O)O)NC(=O)c2ccc(F)nc2)cc1)C(=O)O)C(=O)O` [^18F-PSMA-1007], in data set [1] (compared to ^18F-DCFPyL), the “nonspecific uptake level in most normal tissues” value is given as “even higher”.
